The results in this text go back to patent US20240009269A1 (priority 2020, published 2024).

The subject of series [1] is tissue-engineered dhBMECs microvessels. Kind of series: BBB opening in tissue-engineered BBB microvessels (500 kDa dextran leakage). The format is cell-based, human. The method, then: Three-dimensional blood-brain barrier microvessels were fabricated as previously reported (FIGS. 10A and 10B) [Linville, R. M., et al., Biomaterials, 2019. 190-191: p. 24-37] 150 μm diameter and 1 cm long channels were patterned in 7 mg mL^−1 type I collagen (Corning) using nitinol wire (Malin Co.) housed within polydimethylsiloxane (PDMS; Dow Corning). Channels were cross-linked by incubation in 20 mM genipin (Wako Biosciences) for 2 hours to increase cell adhesion. 2dhBMECs were suspended in BBB induction medium at a concentration of 5×10^6 cells mL^−1 and seeded into channels. Microvessels were perfused using BBB induction medium for 24 hours and then switched to BBB maintenance medium. During cell seeding and the first day of perfusion, 10 μM ROCK inhibitor Y27632 (ATCC) was supplemented to increase adhesion. An average shear stress of ˜2 dyn cm^−2 was maintained with a reservoir height difference (Δh) of 3 cm, corresponding to a volumetric flow rate of ˜250 μL h^−1 (FIG. 11D). This shear stress was estimated from the Poiseuille equation: τ=μQ)/2πd3 where μ is the media dynamic viscosity, Q is the volumetric flow rate, and d is the microvessel diameter.
Live-cell imaging was conducted to study dynamic changes in in vitro BBB permeability and microvessel structure. Microvessels were imaged using a 10×objective equipped on an inverted microscope (Nikon Eclipse TiE) maintained at 37° C. and 5% CO2 (FIG. S2C). Epifluorescence illumination was provided by an X-Cite 120LEDBoost (Excelitas Technologies). Phase contrast and fluorescence images were acquired every two minutes with the focal plane set to the microvessel midplane. The entire image collected consists of ten adjacent imaging frames. […] A dextran solute panel comprised of 200 μM Cascade Blue-conjugated 3 kDa dextran (Cat. No. D7132. Thermo Fisher Scientific), 16 μM Alexa Fluor647-conjugated 10 kDa dextran (Cat. No. D22914, Thermo Fisher Scientific), and 1.2 μM fluorescein-conjugated 500 kDa dextran (Cat. No. D7136, Thermo Fisher Scientific) was prepared in BBB maintenance medium. Fluorophores were independently excited and the respective emissions were collected using: Nikon UV-2E/C for 3 kDa dextran (50 ms exposure), Chroma 41008 for 10 kDa dextran (20 ms exposure), and Nikon B-2E/C for 500 kDa dextran (50 ms exposure).
Image processing was performed using ImageJ (NIH) to quantify BBB opening (FIGS. 11A-11D). First, images were cropped to a standard size of 6 mm×0.6 mm. To determine the spatial heterogeneity of BBB permeability, microvessels were sectioned into 10 regions of interest (ROIs), each a 0.6 mm×0.6 mm square (FIG. 11A). For each ROI, the integrated pixel density was plotted over time (FIG. 11A). The permeability (cm s^−1) was calculated using P=(r/2)(1/ΔI)(dI/dt), where r is the vessel radius, ΔI is the increase in fluorescence intensity upon perfusion of the fluorophore, and (dI/dt) is the rate of increase in fluorescence intensity as solute exits into the gel. […] To visually display permeability dynamics, heatmaps were generated from 90 instantaneous permeability values across the 10 ROIs (x-axis) and nine 10-minute periods (y-axis). […] 28(1): p. 41-51 in ImageJ (FIG. 11B). Under baseline conditions, thresholding results in the lumen designated as white (1) and extracellular matrix (ECM) as black (0). […] From binarized images, individual focal leaks were manually counted over time. Leaks emerging from the sides of the image frame were not counted. To quantify the duration of a BBB opening effect, we identified the time at which the last focal leak appeared and termed the focal leak reversibility time constant (τfocal leaks).

Series [2] can be described thus: Solubility stated in text. The format is physicochemical. The settings on record: vs 1-10 μM.
The test system of series [3] is 2D dhBMEC monolayers (ZO1). Kind of series: Immunocytochemistry of zona occludens-1 in 2D dhBMEC monolayers. Format: cell-based, human. As to the method: Antibodies used in the study are described in Table 3. LabTek 8-chamber slides (Cat. No. 155411, Thermo Fisher Scientific) were coated with 25 μg mL^−1 fibronectin and 50 μg mL^−1 collagen IV overnight at 37° C. BC1 cell were seeded in BBB induction medium at 5×10^5 cells cm^−2. On day 1 after seeding, dhBMECs were washed twice with BBB maintenance medium and incubated in the medium overnight. On day 2, the cells were washed twice with BBB maintenance medium and treated with 1.5 μM, 5 μM, and 10 μM of melittin, diluted in the medium, for 2 minutes, 5 minutes, 10 minutes, or 90 minutes. The resulting melittin dosages, calculated as the product of melittin concentration and incubation time, were 3 μM·minutes, 25 μM·minutes, 100 μM minutes, and 450 μM·minutes. A negative control without melittin was included with every experiment. After the melittin incubation, the cells were washed twice with 1×PBS azide and fixed in 3.7% paraformaldehyde solution for 10 minutes or methanol for 15 minutes. The fixed cells were washed with 1×PBS azide and incubated in blocking solution (10% goat serum, 0.3% TritonX-100 in 1×PBS azide) at 4° C. for 1-2 days. The cells were incubated with primary antibodies for 2 hours at room temperature. […]

On to `CC[C@H](C)[C@H](NC(=O)CN)C(=O)NCC(=O)N[C@@H](C)C(=O)N[C@H](C(=O)N[C@@H](CC(C)C)C(=O)N[C@@H](CCCCN)C(=O)N[C@H](C(=O)N[C@@H](CC(C)C)C(=O)N[C@H](C(=O)N[C@H](C(=O)NCC(=O)N[C@@H](CC(C)C)C(=O)N1CCC[C@H]1C(=O)N[C@@H](C)C(=O)N[C@@H](CC(C)C)C(=O)N[C@H](C(=O)N[C@@H](CO)C(=O)N[C@@H](Cc1c[nH]c2ccccc12)C(=O)N[C@H](C(=O)N[C@@H](CCCCN)C(=O)N[C@@H](CCCNC(=N)N)C(=O)N[C@@H](CCCCN)C(=O)N[C@@H](CCCNC(=N)N)C(=O)N[C@@H](CCC(N)=O)C(=O)N[C@@H](CCC(N)=O)C(N)=O)[C@@H](C)CC)[C@@H](C)CC)[C@@H](C)O)[C@@H](C)O)C(C)C)C(C)C` [melittin], for which the “increase in delivery of 500 kDa dextran across the blood-brain barrier in vitro” value in series [1] is listed as not above 25 fold. For the same molecule, the “500 kDa dextran permeability” value in series [1] (5 μM melittin for 90 minutes, continuous) was “high 500 kDa dextran permeability”. Besides, the “average permeability of 500 kDa dextran, fold higher than baseline” value in series [1] (50 μM·minute dose) was approximately 25 fold. For the same molecule, the “focal leak density relative to mannitol” value in series [1] (above threshold doses, retrospective comparison) was 3 fold. Besides, the “focal leaks 24 hours after melittin exposure” value in series [1] (all doses, 3-100 μM·minute, 500 kDa dextran) is “focal leaks were not observed”. The “barrier function after 24 hours” value in series [1] (high doses) was “barrier function was regained 24 hours later”. For the same molecule, the BBBO result was “induced sustained BBBO, but did not recover during the 90 minutes of imaging” in series [1] (high doses (10-minute 10 μM)); “induced BBBO and resulted in recovery during the 90 minute imaging period” in series [1] (intermediate doses (5-minute 5 μM)); “did not induce BBBO” in series [1] (low doses (2-minute 1.5 μM)). Moreover, in series [1] (intermediate doses (20-50 μM·minute)), the “character of focal leaks” value is “transient”. In addition, the “solubility relative to the concentrations for membrane activity” value in series [2] was “more than 30 fold”. The monolayer integrity entry in series [3] (450 μM·minute dose) is “significant cell detachment was observed”. Also, the “ZO1 protein expression compared to controls” value in series [3] (doses of 3-100 μM·minute) is “did not result in large changes”.
